Data on four compounds can be found in patent US20260098863A1, “Tension-Activated Cell Tagging (TaCT)” (Emory University, priority 2022, published 2026).

The subject of series [1] is NIH3T3 cells. The series is described as follows: TaCT signal by flow cytometry, NIH3T3 cells on TaCT substrates. The series is classed as cell-based. How it is done: FIG. 1 provides a scheme of tension-activated cell tagging (TaCT). TaCT is based on 3′ and 5′ end mechanical pulling of a DNA duplex that leads to dehybridization. The stability of a dsDNA 24 mer was evaluated as a function of applied force generated using oxDNA simulation with a loading rate of 2.81×10^3 nm/s. The exponential moving average (EMA) indicates a 41 pN dehybridization transition. Flow cytometry histograms of NIH3T3 cells cultured on TaCT substrates as well as control surfaces with (−)cholesterol, (−)RGD, and (+)LatB were obtained.
NIH3T3 cells were seeded onto the TaCT substrates, allowed to spread, and collected by gentle scraping. The TaCT signal was then measured by flow cytometry. Probes lacking RGD, probes lacking cholesterol, as well as full TaCT probes cells treated with Lat B were used as negative controls. […] Background tagging of cells due to cell spreading and proximity to the surface leads to negligible TaCT signal.

Series [2] deals with mouse embryonic fibroblasts. In words: fluorescence microscopy of force-induced DNA duplex peeling under mouse embryonic fibroblasts. The series is classed as cell-based. How it is done:
FIG. 4A illustrates Lat B inhibition of cells. […] RICM and Cy3B microscopy images were obtained from MEF cells incubated on peeling probe substrate after early Lat B treatment. Cells were treated with 20 μM Lat B after 15 min of plating on the substrate and imaged after 45 min of incubation.
FIG. 4B illustrates that when integrin force signals are already generated on peeling probe substrate, if the force transmission is terminated by late Lat B treatment, with additional BHQ2 peeling strand, the peeling probe can rehybridize to the duplex form. RICM and raw Cy3B microscopy images were obtained of MEF cells treated with 20 μM Lat B 50 min after seeding. The tension signal remained after 10 min of Lat B treatment and diminished after the addition of excess BHQ2 peeling strand.
The Cy3B signal was primarily localized to the cell edge, consistent with the distribution of focal adhesions (FAs) and accumulated as a function of time. The growth of Cy3B signal corresponded to the loss of Atto647N signal and confirmed the force-induced peeling mechanism. This mechanism can generate high quality maps of integrins forces independent of cholesterol conjugation to the probe. […] The observed tension signal colocalized with markers of FAs such as vinculin and phosphorylated focal adhesion kinase (FAK pY397), as well as actin stress fibers, confirming that forces were primarily transmitted by integrins within FAs. The peeling signal mirrors that of the turn-on tension gauge tether (TGT) probes but avoids termination of mechanotransduction which represents an advantage as a molecular force sensor. […] Maps accumulated mechanical events over time.

The test system of series [3] is mouse platelets. The series is described as follows: TaCT signal by flow cytometry, mouse platelets on TaCT surface. The series is classed as cell-based. The following applies: mouse platelets seeded 30 min. Here is the method: Experiments were performed to determine whether this strategy works in primary cells. […] When mouse platelets were seeded onto the TaCT surface for 30 min, a loss of Atto647N signal was noted that was coupled with an increase in Cy3B. This confirmed that platelet integrin force transmission was sufficient to mediate DNA peeling with F greater than 41 pN.
(In flow cytometry, cells or beads pass a laser one at a time.)

The next series relates to MEF cells (WT and vin−). In words: TaCT on co-cultured WT and vinculin null MEF cells, flow cytometry. The series is classed as cell-based, mouse. Here is the method:
Vinculin is an adaptor protein that localizes to FAs linking the cytoskeleton to adhesion receptors and aids in FA maturation. TaCT was performed on these two cell types separately. The vin− cells were stained with cell tracker dye, CMFDA, before plating onto TaCT substrates. To ensure that the TaCT signal is not due to differential uptake, cholesterol uptake of WT and vin− cells was measured by flow cytometry in parallel with each TaCT assay. WT cells had larger spreading area and produced more tension signal compared to vin− cells in the Cy3B channel. […] Experiments were performed to determine whether this differential tension signal could be detected when the WT and vin− were co-cultured.

A short description of series [4]: FRET efficiency of surface-immobilized TaCT probes. The series is classed as physicochemical. An excerpt:
In one example, TaCT probe is comprised of a load-bearing strand and a 24mer peeling strand. […] The loading-bearing strand also incorporated an internal Cy3B dye. The complementary peeling strand was designed to release once force (F) is greater than F peel. The peeling strand termini were labeled with Atto647N and cholesterol. The TaCT probes were annealed and immobilized on streptavidin-coated glass slides. At rest, the probe is in the dsDNA form where Cy3B and Atto647N form a FRET pair. When F is greater than F peel, the Atto647N strand peels and dissociates, while the Cy3B dye on the load bearing strand is de-quenched. […] The probe density was measured at 5200 molecules/μm^2 using a quantitative fluorescence calibration, which allows one to convert the Cy3B fluorescence signal to a % peel.

In series [5] the test system is MEF cells. In words: Y27632 dose-dependent response of TaCT / tension signal in MEF cells. The class given is cell-based, mouse. The following applies: Y27632 pre-treatment. An excerpt: To showcase that TaCT is an effective method to report cell receptor forces, a Rho-associated protein kinase (ROCK) inhibitor, Y27632, was used to disrupt the force transmission through cytoskeleton and measure the dose-dependent response in MEF cells. Y27632 inhibits ROCK kinases by competing with ATP binding, and further result in decreased myosin activity, destabilization of actin filament and abolished stress formation.

Series [6] deals with Rho-associated protein kinase (ROCK). Particulars: cited from earlier work.
Series [7] concerns mouse platelets. In words: flow cytometry of DNA strand uptake in solution (cholesterol-DNA cell tagging). The series is classed as cell-based. The following applies: 50 nM, 30 min. Here is the method:
FIG. 5A illustrates a scheme for making flow cytometry measurements of the DNA strands uptake in solution. Mouse platelets were incubated with 50 nM of cholesterol peeling strand, TaCT duplex, load-bearing strand, TaCT duplex lacking RGD, and load-bearing strand lacking RGD in Tyrode's buffer for 30 min and spun down three times to wash away the excess oligos. The association was measured in both Atto647N and Cy3B channels by a flow cytometer.
(§1) After confirming that DNA peeling consistently maps molecular traction forces, cholesterol-DNA cell tagging for TaCT was investigated. Cholesterol-DNA is contemplated to partition into the plasma membrane of cells. […] The stability of TaCT tags was examined by incubating cholesterol-single stranded DNA with cells, washing, and measuring the loss of DNA as a function of time. Approximately 20-30% of the cholesterol-tethered DNA dissociated at 90 min. Accordingly, the cells were incubated on the surface for 1 h, which allowed for focal adhesion formation and TaCT method to proceed while limiting cholesterol dissociation.

The test system of series [8] is MEF cells. In words: concentration dependent incorporation of cholesterol peeling strand. The class given is cell-based, mouse. The following applies: 0, 1, 10, 100 nM, 1 h. Here is the method: FIG. 5C provides a scheme showing flow cytometry measurements of the concentration dependent incorporation of cholesterol peeling strand. MEF cells were incubated with 0, 1, 10, and 100 nM of cholesterol peeling strand for 1 h. The excess cholesterol peeling strand was washed away by spinning down in PBS three times, and the fluorescence intensity of cells was measured by a flow cytometer.
Linear relationship between cholesterol strand concentration and cell association was found, R2=0.977.
as §1

Series [9] concerns NIH3T3 cells. The series is described as follows: cholesterol peeling strand dissociation from the cell. The series is classed as cell-based. Particulars: at 90 min after washing. Here is the method: FIG. 5E provides a scheme showing the measurement of cholesterol peeling strand dissociation from the cell. NIH3T3 cells were incubated with 100 nM cholesterol peeling strand for 30 min and rinsed with PBS 3 times. Cells were divided into 6 aliquots and the remaining cholesterol strand in cells was measured every 30 min for 150 min by flow cytometry.
The normalized MFI from 2 replicates was plotted to show the dissociation of cholesterol strand over time in NIH3T3 cells.
as §1

In the series on NIH3T3 cells [1] (NIH3T3 cells on full TaCT probes, cells treated with Lat B), `C/C1=C/C(=O)O[C@@H]2C[C@@H](CC[C@H](C)/C=C\CC1)O[C@@](O)([C@@H]1CSC(=O)N1)C2` [Lat B, Latrunculin B, reference compound] came in with a force positive population of 3.5%. The tension signal changes result in [2] (Lat B 50 min after seeding (20 μM)) was “did not show tension signal changes”. Further, the peeling signal entry in [2] (cells treated with Lat B (early, 20 μM)) is recorded as “significantly reduced peeling signal”.
“TaCT probe: DNA duplex: RGD/Cy3B/biotin load-bearing strand (SEQ ID NO: 1) and 24mer Atto647N, cholesterol peeling strand (SEQ ID NO: 2) (DNA 1 TTTTTTTTTTAGTGAGCTCTGAAGTCTTAGAACT; DNA 2 AGTTCTAAGACTTCAGAGCTCACT; DNA, backbone and methylation of C not given here; RGD and biotin at the two termini, internal Cy3B, peeling strand Atto647N and cholesterol)”: the “Atto647N geometric mean fluorescence intensity (gMFI) increase compared to controls” value with NIH3T3 cells [1] (NIH3T3 cells incubated on TaCT) is on record as “greater than 2 fold”. In addition, in the series with NIH3T3 cells [1] (NIH3T3 cells incubated on TaCT compared to controls), the “Cy3B gMFI” value was “did not change”. Also, the force positive population was found to be 27.6% with NIH3T3 cells [1] (NIH3T3 cells on substrate, 1 h, flow cytometry); 13.3% in the series with mouse platelets [3]; 24.4% with MEF cells (WT and vin−) (WT MEF cells in mixed population (co-culture)); 5.2% in the series on MEF cells (WT and vin−) (vin− MEF cells in mixed population (co-culture)). In series [2] (equivalent of % peel and probe density), the “mechanical events with F greater than 41 pN” value is given as “approximately 47 mechanical events/μm^2”. In addition, the “probes peeled under each cell” value in series [2] (quantitative microscopy analysis) is 0.9%. Also, in [4], the “Cy3B signal enhancement upon peeling” value is listed as “greater than 10 fold”. The FRET efficiency in series [4] (Cy3B / Atto647N pair in dsDNA form) came out at 93.8%.
The IC50 is the concentration at which inhibition is half-maximal. Take `C[C@@H](N)[C@H]1CC[C@H](C(=O)Nc2ccncc2)CC1` [Y27632]: in the series on MEF cells [5] (Mus musculus, flow cytometry, ROCK inhibitor), the 50% inhibitory concentration (IC50) was 773 nM. Besides, the Cy3B tension signal entry in the series on MEF cells [5] (microscopy) is listed as “decreased Cy3B tension signal”. Also, the “literature reported IC50 values” in series [6] was “hundreds of nM to low μM”.
For the compound “Cholesterol-single stranded DNA conjugates: 24 mer peeling strand (SEQ ID NO: 2) labeled with Atto647N and cholesterol (DNA AGTTCTAAGACTTCAGAGCTCACT; DNA, backbone and methylation of C not given here; Atto647N and cholesterol on the termini)”, the “effectiveness at tagging cells compared to cholesterol-double stranded DNA conjugates” value with mouse platelets [7] was “approximately 50 fold”. For the same compound, the “membrane-association versus soluble conjugate concentration” value in the series on MEF cells [8] was “linearly proportional”. Moreover, the “cholesterol-tethered DNA dissociated” value with NIH3T3 cells [9] is 20-30%.
